Results on 15 molecules are retold here after ChEMBL document CHEMBL3991601, “The target landscape of clinical kinase drugs” (Science, 2017).

The target of experiment [1] is Tyrosine-protein kinase ABL2 (Homo sapiens, UniProt P42684).
The target of experiment [2] is Bone morphogenetic protein receptor type-1A (Homo sapiens, UniProt P36894).
For experiment [3], the target named is Tyrosine-protein kinase CSK (Homo sapiens, UniProt P41240).
Experiment [4] has as its target T1, Cytochrome c1, heme protein, mitochondrial (Homo sapiens, UniProt P08574).
T1 sequence (P08574 whole entry): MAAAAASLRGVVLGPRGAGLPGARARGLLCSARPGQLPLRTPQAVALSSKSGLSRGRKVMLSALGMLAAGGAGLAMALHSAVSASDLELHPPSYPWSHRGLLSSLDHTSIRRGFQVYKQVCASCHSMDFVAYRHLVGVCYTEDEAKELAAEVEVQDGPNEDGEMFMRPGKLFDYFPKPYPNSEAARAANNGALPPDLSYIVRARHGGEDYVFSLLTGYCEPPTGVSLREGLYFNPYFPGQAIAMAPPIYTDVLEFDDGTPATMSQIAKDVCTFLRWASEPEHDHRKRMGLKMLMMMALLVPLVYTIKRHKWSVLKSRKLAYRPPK

For experiment [5], the target named is Tyrosine-protein kinase Fyn (Homo sapiens, UniProt P06241).
Experiment [6] concerns the target T2, Serine/threonine-protein kinase LATS1 (Homo sapiens, UniProt O95835).
T2 sequence (O95835 whole entry): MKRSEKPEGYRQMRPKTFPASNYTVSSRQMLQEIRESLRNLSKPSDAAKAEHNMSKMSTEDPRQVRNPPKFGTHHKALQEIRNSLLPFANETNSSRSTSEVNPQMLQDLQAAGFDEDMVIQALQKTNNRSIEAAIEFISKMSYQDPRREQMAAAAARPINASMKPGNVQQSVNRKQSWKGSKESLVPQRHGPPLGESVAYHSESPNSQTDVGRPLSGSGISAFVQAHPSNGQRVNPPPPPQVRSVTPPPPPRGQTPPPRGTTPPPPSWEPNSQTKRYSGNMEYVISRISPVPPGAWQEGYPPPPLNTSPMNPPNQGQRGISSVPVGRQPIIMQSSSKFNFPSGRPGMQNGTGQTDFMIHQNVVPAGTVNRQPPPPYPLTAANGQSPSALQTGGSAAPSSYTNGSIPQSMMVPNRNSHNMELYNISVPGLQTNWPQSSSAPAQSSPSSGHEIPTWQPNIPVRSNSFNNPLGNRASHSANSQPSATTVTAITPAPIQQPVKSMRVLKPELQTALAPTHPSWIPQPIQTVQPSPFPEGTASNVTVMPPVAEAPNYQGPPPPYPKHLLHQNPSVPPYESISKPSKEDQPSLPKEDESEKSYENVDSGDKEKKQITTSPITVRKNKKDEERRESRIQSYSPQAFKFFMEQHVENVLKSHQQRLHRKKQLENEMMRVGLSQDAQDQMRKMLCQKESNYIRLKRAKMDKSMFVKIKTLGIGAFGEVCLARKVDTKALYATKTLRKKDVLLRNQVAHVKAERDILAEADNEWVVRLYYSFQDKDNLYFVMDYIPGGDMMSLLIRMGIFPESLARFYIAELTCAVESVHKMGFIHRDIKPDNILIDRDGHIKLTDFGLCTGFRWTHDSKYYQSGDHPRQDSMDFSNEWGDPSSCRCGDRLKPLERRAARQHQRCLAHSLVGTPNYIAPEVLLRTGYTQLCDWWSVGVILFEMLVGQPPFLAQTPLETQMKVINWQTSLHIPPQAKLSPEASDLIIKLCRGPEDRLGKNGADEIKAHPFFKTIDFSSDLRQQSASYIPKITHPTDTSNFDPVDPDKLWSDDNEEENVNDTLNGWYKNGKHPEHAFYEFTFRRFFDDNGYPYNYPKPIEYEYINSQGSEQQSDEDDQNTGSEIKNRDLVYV

The target in experiment [7] is S-adenosylmethionine synthase isoform type-2 (Homo sapiens, UniProt P31153).
The target in the next experiment is T3, ADP/ATP translocase 2 (Homo sapiens, UniProt P05141).
T3 sequence (P05141 whole entry): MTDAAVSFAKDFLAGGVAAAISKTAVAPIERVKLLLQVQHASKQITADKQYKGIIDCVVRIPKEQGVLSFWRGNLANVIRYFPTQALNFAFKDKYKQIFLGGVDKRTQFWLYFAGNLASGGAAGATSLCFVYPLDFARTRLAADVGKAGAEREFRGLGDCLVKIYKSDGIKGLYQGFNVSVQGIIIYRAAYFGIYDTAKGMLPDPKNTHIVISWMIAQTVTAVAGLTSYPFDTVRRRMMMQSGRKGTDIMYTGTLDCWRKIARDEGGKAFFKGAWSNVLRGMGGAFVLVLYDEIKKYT

For experiment [8], the target named is Tyrosine-protein kinase Yes (Homo sapiens, UniProt P07947).
The next experiment has as its target T4, Scaffold protein ILK (Homo sapiens, UniProt Q13418).
T4 sequence (Q13418 whole entry): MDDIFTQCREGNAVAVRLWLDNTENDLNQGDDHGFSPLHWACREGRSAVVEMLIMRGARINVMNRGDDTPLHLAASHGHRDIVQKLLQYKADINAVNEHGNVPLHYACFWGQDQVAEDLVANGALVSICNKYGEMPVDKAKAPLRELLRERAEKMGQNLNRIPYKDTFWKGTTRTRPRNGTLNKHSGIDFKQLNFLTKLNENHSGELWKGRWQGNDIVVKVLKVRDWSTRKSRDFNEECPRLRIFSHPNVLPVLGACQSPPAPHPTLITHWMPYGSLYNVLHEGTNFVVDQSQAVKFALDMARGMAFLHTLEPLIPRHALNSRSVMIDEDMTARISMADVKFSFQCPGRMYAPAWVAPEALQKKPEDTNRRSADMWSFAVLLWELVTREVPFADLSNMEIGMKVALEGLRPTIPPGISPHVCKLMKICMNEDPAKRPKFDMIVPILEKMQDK

Molecules are shown by their SMILES. Active and inactive are the calls of the source. Where only a bound is given, the exact number is not on record here.
Also: in the data inactive means no Kd found up to 30 µM.

Bone morphogenetic protein receptor type-1A, sequence (P36894 whole entry): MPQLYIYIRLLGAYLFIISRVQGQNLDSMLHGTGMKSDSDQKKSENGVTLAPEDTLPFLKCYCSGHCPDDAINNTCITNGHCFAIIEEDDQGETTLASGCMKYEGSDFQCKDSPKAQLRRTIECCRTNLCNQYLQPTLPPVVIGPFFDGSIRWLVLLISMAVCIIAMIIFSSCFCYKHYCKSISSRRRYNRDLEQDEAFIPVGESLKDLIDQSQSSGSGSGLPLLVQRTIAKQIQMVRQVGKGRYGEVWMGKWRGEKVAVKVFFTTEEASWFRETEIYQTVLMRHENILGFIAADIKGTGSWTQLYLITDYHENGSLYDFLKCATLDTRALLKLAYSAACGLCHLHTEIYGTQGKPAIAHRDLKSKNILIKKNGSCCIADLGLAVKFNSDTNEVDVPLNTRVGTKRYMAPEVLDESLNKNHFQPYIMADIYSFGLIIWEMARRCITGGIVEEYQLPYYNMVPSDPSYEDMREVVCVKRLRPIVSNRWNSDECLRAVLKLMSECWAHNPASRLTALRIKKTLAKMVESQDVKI
Tyrosine-protein kinase Yes, sequence (P07947 whole entry): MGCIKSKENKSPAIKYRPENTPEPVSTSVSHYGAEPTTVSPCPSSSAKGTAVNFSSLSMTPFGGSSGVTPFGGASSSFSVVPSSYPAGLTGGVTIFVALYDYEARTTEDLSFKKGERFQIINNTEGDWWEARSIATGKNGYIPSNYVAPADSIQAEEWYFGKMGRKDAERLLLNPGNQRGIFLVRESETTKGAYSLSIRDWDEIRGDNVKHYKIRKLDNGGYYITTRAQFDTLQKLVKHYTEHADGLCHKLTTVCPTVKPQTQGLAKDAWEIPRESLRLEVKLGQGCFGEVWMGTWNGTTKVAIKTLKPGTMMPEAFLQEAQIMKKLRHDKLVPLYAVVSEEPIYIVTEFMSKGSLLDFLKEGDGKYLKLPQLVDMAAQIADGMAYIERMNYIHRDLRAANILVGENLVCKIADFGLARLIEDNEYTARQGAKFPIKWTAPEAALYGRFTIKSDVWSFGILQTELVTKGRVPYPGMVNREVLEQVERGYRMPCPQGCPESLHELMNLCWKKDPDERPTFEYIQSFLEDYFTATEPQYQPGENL
S-adenosylmethionine synthase isoform type-2, sequence (P31153 whole entry, canonical isoform): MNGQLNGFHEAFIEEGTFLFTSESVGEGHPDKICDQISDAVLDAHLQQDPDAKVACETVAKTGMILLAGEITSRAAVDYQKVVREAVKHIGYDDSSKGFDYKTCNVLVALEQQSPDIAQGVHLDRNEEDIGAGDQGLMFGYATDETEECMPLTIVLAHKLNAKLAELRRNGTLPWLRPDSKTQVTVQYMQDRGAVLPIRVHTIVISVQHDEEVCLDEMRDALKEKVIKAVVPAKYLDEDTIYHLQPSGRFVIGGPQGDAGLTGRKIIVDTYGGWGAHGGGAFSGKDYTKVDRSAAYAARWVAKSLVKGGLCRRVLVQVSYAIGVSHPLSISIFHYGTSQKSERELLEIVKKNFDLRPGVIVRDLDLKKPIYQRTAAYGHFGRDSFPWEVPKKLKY
Tyrosine-protein kinase ABL2, sequence (P42684 whole entry): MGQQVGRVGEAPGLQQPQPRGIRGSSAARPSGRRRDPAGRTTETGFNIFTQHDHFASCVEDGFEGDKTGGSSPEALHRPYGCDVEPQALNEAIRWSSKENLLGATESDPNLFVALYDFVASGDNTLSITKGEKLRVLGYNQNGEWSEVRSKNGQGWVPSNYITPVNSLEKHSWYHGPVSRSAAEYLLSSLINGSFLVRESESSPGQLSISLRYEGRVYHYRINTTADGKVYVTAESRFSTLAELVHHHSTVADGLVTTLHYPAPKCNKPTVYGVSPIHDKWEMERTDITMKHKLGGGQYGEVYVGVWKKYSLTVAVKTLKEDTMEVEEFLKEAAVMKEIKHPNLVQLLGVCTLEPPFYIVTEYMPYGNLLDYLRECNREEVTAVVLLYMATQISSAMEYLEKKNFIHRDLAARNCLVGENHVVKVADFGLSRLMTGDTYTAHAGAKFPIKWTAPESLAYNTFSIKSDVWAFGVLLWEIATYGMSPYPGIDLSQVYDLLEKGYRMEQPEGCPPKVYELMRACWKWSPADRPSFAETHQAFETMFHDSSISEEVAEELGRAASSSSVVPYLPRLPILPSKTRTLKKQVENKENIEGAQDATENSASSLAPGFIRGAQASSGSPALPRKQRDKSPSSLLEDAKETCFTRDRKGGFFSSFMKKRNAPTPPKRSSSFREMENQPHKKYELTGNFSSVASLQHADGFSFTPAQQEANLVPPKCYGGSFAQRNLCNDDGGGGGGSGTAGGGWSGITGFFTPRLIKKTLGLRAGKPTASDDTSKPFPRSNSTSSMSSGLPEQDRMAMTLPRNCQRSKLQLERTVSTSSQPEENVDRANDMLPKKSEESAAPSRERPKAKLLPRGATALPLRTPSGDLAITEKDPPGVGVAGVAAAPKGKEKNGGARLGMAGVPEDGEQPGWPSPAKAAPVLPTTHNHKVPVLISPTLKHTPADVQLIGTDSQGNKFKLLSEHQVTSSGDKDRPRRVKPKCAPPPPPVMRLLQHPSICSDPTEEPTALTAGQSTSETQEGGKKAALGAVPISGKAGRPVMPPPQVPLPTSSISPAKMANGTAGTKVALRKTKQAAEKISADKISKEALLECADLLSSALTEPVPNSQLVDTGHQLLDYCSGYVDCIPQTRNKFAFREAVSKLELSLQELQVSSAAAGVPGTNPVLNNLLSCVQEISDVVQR
Tyrosine-protein kinase CSK, sequence (P41240 whole entry): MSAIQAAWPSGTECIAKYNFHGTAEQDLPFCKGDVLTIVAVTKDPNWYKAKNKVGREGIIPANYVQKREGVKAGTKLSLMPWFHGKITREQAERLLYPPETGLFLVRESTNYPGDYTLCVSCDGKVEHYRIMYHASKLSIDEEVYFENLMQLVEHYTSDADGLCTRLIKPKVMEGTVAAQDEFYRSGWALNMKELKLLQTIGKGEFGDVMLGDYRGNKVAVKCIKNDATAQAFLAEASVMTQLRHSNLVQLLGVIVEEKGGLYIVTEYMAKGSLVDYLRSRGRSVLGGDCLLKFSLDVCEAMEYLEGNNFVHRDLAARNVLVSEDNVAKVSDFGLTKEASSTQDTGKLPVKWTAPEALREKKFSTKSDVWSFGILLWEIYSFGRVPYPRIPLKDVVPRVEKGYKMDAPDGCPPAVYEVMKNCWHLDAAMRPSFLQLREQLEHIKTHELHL
Tyrosine-protein kinase Fyn, sequence (P06241 whole entry): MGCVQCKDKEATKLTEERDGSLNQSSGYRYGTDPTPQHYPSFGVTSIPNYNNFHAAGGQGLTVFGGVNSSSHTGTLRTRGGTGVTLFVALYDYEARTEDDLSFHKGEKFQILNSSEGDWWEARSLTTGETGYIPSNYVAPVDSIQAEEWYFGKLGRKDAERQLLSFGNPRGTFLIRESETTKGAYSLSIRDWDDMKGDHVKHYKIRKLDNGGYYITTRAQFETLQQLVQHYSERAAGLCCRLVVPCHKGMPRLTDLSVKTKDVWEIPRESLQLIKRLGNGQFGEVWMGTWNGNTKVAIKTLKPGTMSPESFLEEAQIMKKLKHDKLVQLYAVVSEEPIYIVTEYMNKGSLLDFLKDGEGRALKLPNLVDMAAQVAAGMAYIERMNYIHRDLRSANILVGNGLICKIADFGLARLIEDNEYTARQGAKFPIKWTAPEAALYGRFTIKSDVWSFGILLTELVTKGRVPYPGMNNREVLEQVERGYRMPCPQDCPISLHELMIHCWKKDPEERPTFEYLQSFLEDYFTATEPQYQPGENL

Take `Cc1ccc(S(=O)(=O)Nc2nc3ccccc3nc2Nc2ccc3nsnc3c2)cc1`: the Kd in experiment [1], in experiment [2], in [3], in [4], in experiment [5] and in [6] was > 30 µM (inactive) each time. Moreover, the Kd (in [7]; on ADP/ATP translocase 2; in [8]) was > 30 µM (inactive) in each case.
In the case of `OCCn1cc(-c2cnc3nnn(Cc4ccc5ncccc5c4)c3n2)cn1` [PF-04217903], the Kd (in [1]; in [2]; in experiment [3]; in [4]; at Scaffold protein ILK; in [6]) was > 30 µM (inactive) each time. The Kd (in [7]; at ADP/ATP translocase 2; in experiment [8]) was > 30 µM (inactive) in each case.
As for `CCn1c(-c2nonc2N)nc2c(C#CC(C)(C)O)ncc(OC[C@H]3CCCNC3)c21` [GSK-690693], the Kd (in [4]; at Scaffold protein ILK; in [7]; at ADP/ATP translocase 2) was > 30 µM (inactive) throughout.
`Cc1cc(Nc2cc(N3CCN(C)CC3)nc(/C=C/c3ccccc3)n2)n[nH]1` [ENMD-2076]: the Kd (in [2]; in experiment [3]; in experiment [4]; on Scaffold protein ILK; in experiment [6]; in experiment [7]) was > 30 µM (inactive) in each case. Also, the Kd (in general, the free concentration of one partner at which half of the binding sites on the other are occupied at equilibrium, for simple one-to-one binding) on ADP/ATP translocase 2 was > 30 µM (inactive); in [8], 0.441 µM (active).
For the molecule `C=CC(=O)N1CCC(Oc2cc3c(Nc4ccc(Cl)c(Cl)c4F)ncnc3cc2OC)CC1` [POZIOTINIB], the Kd in experiment [1], in experiment [2], in [3], in experiment [4], in experiment [5] and in [6] was > 30 µM (inactive) in each case. Moreover, the Kd (in [7]; on ADP/ATP translocase 2; in experiment [8]) was > 30 µM (inactive) in each case.
On to `Nc1nc(N)c2nc(-c3cccc(O)c3)c(-c3cccc(O)c3)nc2n1` [TG100-115], for which the Kd (in experiment [7]; on ADP/ATP translocase 2) was > 30 µM (inactive) in each case.
Regarding `CN1CCN(c2ccc3nc(-c4c(N)c5c(F)cccc5[nH]c4=O)[nH]c3c2)CC1` [DOVITINIB], the Kd (in [4]; on Scaffold protein ILK; at ADP/ATP translocase 2) was > 30 µM (inactive) throughout.
Regarding `O=C(Nc1cccc(Cl)c1)Nc1ncc(CCNc2ncnc3ccsc23)s1` [SNS-314], the Kd (in experiment [1]; in [2]; in experiment [3]; in experiment [4]; on Scaffold protein ILK; in experiment [6]) was > 30 µM (inactive) each time. The Kd (in experiment [7]; at ADP/ATP translocase 2; in experiment [8]) was > 30 µM (inactive) throughout.
In the case of `C1=C/COCc2cc(ccc2OCCN2CCCC2)Nc2nccc(n2)-c2cccc(c2)COC/1` [PACRITINIB], the Kd in experiment [1], in [2], in experiment [3], in experiment [4], in experiment [5] and in experiment [6] was > 30 µM (inactive) each time. In addition, the Kd (in [7]; on ADP/ATP translocase 2; in experiment [8]) was > 30 µM (inactive) throughout.
As for `CCc1cnn2c(NCc3ccc[n+]([O-])c3)cc(N3CCCC[C@H]3CCO)nc12` [DINACICLIB], the Kd (in [1]; in experiment [2]; in [3]; in experiment [4]; at Scaffold protein ILK; in experiment [6]) was > 30 µM (inactive) each time. In addition, the Kd (in [7]; at ADP/ATP translocase 2; in experiment [8]) was > 30 µM (inactive) each time.
`C[C@@H](c1ccc2nccn2c1)n1nnc2ncc(-c3cnn(C)c3)nc21` [SAVOLITINIB]: the Kd in [1], in experiment [2], in [3], in [4], in experiment [5] and in experiment [6] was > 30 µM (inactive) in each case. The Kd (in experiment [7]; on ADP/ATP translocase 2; in experiment [8]) was > 30 µM (inactive) throughout.
Regarding `Cc1nc(N)sc1-c1ccnc(Nc2ccc(N3CCOCC3)cc2)n1` [CYC-116], the Kd was > 30 µM (inactive) in experiment [1]; > 30 µM (inactive) in experiment [2]; > 30 µM (inactive) in experiment [3]; > 30 µM (inactive) in experiment [4]; > 30 µM (inactive) at Scaffold protein ILK; 0.066 µM (active) in experiment [6]. In addition, the Kd (in [7]; at ADP/ATP translocase 2; in experiment [8]) was > 30 µM (inactive) throughout.
For `O=c1sn(-c2cccc3ccccc23)c(=O)n1Cc1ccccc1` [TIDEGLUSIB], the Kd in experiment [1], in experiment [2], in experiment [3], in experiment [4], in experiment [5] and in experiment [6] was > 30 µM (inactive) throughout. The Kd (in experiment [7]; at ADP/ATP translocase 2; in experiment [8]) was > 30 µM (inactive) throughout.
On to `Cc1cn(-c2cc(NC(=O)c3ccc(C)c(Nc4nccc(-c5cccnc5)n4)c3)cc(C(F)(F)F)c2)cn1` [NILOTINIB], for which the Kd in [4] was > 30 µM (inactive); at Scaffold protein ILK, 0.02 µM; in experiment [7], > 30 µM (inactive); on ADP/ATP translocase 2 it was > 30 µM (inactive).
Regarding `CN1N=C(N)c2cn([C@@H]3O[C@H](COP(=O)(O)O)[C@@H](O)[C@H]3O)c3ncnc1c23` [TRICIRIBINE PHOSPHATE], the Kd in experiment [1], in experiment [2], in [3], in experiment [4], in [5] and in experiment [6] was > 30 µM (inactive) throughout. Also, the Kd (in [7]; on ADP/ATP translocase 2; in experiment [8]) was > 30 µM (inactive) throughout.
